Patent US20040180917A1, “Novel tricyclic dihydro-quinoline derivatives, method for preparing same and pharmaceutical compositions containing the same” (priority 2001, published 2004)

System: L1210
Assay: In vitro cytotoxicity, Microculture Tetrazolium Assay, L1210
Assay type: cell-based
Details: L1210 murine leukaemia, incubated for 2 days; read-out: IC50 (concentration of cytotoxic agent which inhibits proliferation of the treated cells by 50%)
Experimental: Three cell lines were used:
The cells are cultured in RPMI 1640 complete culture medium containing 10% foetal calf serum, 2 mM glutamine, 50 units/ml of penicillin, 50 μg/ml of streptomycin and 10 mM Hepes, pH=7.4. The cells are distributed on microplates and are exposed to the cytotoxic compounds. The cells are then incubated for 2 days (L1210) or 4 days (A549, HT29). The number of viable cells is then quantified by a colorimetric assay, the Microculture Tetrazolium Assay (Cancer Res. 1987, 47, 939-942).

COc1cc(C2C3=C(COC3=O)Nc3c2ccc2ccc(O)cc32)cc(OC)c1OC (stereo not shown) [Example 4]
IC50: 7 nM
